Paper PMC11530802, “Evolution, structure, and drug-metabolizing activity of mammalian prenylcysteine oxidases” (The Journal of Biological Chemistry, 2024)

Target: T1, PCYOX1 (mammalian ancestor)
T1 construct: mammalian ancestor's PCYOX1 (26-502), without signal peptide, six histidine N-terminal tag
Assay: microscale thermophoresis; GC-MS detection of farnesal
Format: binding, synthetic construct

- Kd: 12 ± 0.2 µM
SMILES: CC(C)=CCC/C(C)=C/CC/C(C)=C/CSc1ccccc1C(=O)O [salirasib]
